Like-named read-outs stand apart in the source and are kept apart here.
Test system: HepG2 cells
Details: 24 hours; for Cell viability: vs 0% ethanol
Protocol: A HepG2 cell line, which is human liver cancer-derived cells, was obtained from Riken Bioresource Research Center (RIKEN BRC) and cultured in DMEM containing 10% fetal bovine serum (FBS) (Sigma-Aldrich, F7524) and 1% penicillin-streptomycin (manufactured by FUJIFILM Wako Pure Chemical Corporation, trade name: 168-23191) under conditions of 37° C. and 5% CO2.

CCO [Ethanol, ethanol]
Viable cell count (HepG2, ethanol 0.25%): 9.48 × 10^4 cells/well | Cell viability (HepG2, ethanol 0.25%): 96.7% | Viable cell count (HepG2, ethanol 0.5%): 9.37 × 10^4 cells/well | Cell viability (HepG2, ethanol 0.5%): 95.6% | Viable cell count (HepG2, ethanol 1%): 8.22 × 10^4 cells/well | Cell viability (HepG2, ethanol 1%): 83.8% | Viable cell count (HepG2, ethanol 2%): 6.05 × 10^4 cells/well | Cell viability (HepG2, ethanol 2%): 61.7% | Viable cell count (HepG2, ethanol 4%): 4.87 × 10^4 cells/well | Cell viability (HepG2, ethanol 4%): 49.7% | Viable cell count (HepG2, ethanol 8%): 0.35 × 10^4 cells/well | Cell viability (HepG2, ethanol 8%): 3.6%

Source: US20240050465A1, “HYDROGEN WATER FOR PREVENTION OF ALCOHOLIC HEPATOPATHY” (NIHON TRIM CO., LTD., priority 2021, published 2024)
